Three compounds from patent publication US20100130476A1, “COMPOUNDS THAT INDUCE PANCREATIC BETA-CELL EXPANSION” (The Scripps Research Institute, priority 2008, published 2010) can be followed below.

The subject of assay [1] is rat primary β cells. The experiment in a line: Primary β-cell proliferation assay, rat (C-peptide/Ki-67 double staining). The assay is classed as cell-based. How it is done: (§1) Islets are isolated by the standard Liberase digestion method from the pancreata of adult Sprague-Dawley rats (200-250 g) (Liberase III; Roche Applied Science) and cultured in RPMI medium with 10% FBS. Briefly, 6 ml of ice-cold Liberase solution (Roche Applied Science) is injected into the pancreas via the common bile duct. After dissection, the pancreas is incubated for 35 minutes at 37° C. and then further dissociated by repeated pipetting using a 10-ml pipette. Islets are purified by Histopaque-1.077 (Sigma) density gradient centrifugation and are manually picked using a stereomicroscope. […] Human islets are obtained through the Juvenile Diabetes Research Foundation Islet Distribution Program by Islet Cell Resource Center in Minnesota, USA. The purity and viability of human islets are reported to be 30-70% and 50-70%, respectively. Human islets are cultured in CMRL medium containing 10% FBS.
(§2) Islets or single suspension cells are fixed with 4% formalin solution (Sigma) and stained by standard immuno-fluorescence techniques for C-peptide (anti-human C-peptide antibody from Raybiotech, Inc., and anti-rat C-peptide antibody from Linco, Inc.) and Ki-67 (anti-Ki-67 antibody from Abcam), a marker of proliferating cells. Nuclear DNA is stained with DAPI (Molecular Probes). At least 30,000 C-peptide positive cells are counted in each experiment, performed in triplicate. The images are taken on a Nikon Eclipse TE300 microscope with 200× magnification. Proliferating C-peptide/Ki-67 double positive β-cells are counted manually.

Assay [2] relates to MIN6 cells. The experiment in a line: MIN6 β-cell proliferation (BrdU incorporation assay). Format: cell-based. The method, then: (§3) R7T1 β-cells are expanded in growth medium (DMEM with 15% horse serum and 2.5% FBS) in the presence of 10 μg/ml doxycycline. (3TC-tet cells are expanded in growth medium (DMEM with 15% horse serum and 2.5% FBS) in the absence of 10 μg/ml doxycycline. Hamster HIT-T15 β-cells are grown in F12 medium with 15% horse serum and 2.5% FBS. MIN6 cells are cultured in DMEM with 15% FBS. HEK293 cells are grown according to instructions from ATCC (http://www.atcc.org/).
(Incorporation of labelled thymidine or its analogues reports DNA synthesis.)

The test system of assay [3] is HIT-T15 β cells. The assay can be described thus: HIT-T15 β-cell proliferation (BrdU incorporation assay). Format: cell-based, Hamster. How it is done: as §3
Assay [4] deals with human primary β cells. The assay can be described thus: Primary β-cell proliferation assay, human (C-peptide/Ki-67 double staining). Format: cell-based. How it is done:
as §1, §2

The test system of assay [5] is MIN6 cells. The experiment in a line: Calcium influx assay (fluo-3, FLIPR). Format: cell-based. Conditions: MIN6 β cells. The method, then: Calcium Influx Assay.Measurement of intracellular Ca^2+ ([Ca^2+]i) was performed by using a fluorescence laser-imaging plate reader (FLIPR; Molecular Devices). Briefly, MIN6 cells cultured in 384-well plates were incubated for 1 h with 4 μM fluo-3/AM (Molecular Probes) and 0.04% pluronic acid in physiological Locke's buffer (154 mM NaCl, 5.6 mM KCl, 1.0 mM MgCl2, 2.3 mM CaCl2, 8.6 mM Hepes, 5.6 mM glucose, and 0.1 mM glycine [pH 7.4]). After incubation, MIN6 cells were washed with Locke's buffer by using an automated cell washer to remove extracellular dye. MIN6 cells were treated with compounds at the indicated concentrations. These cells were excited at 488 nm and Ca^2+-bound fluo-3 emission was recorded at 500-560 nm.

Assay [6] relates to Ras. The assay can be described thus: Ras activation analysis (GST-Raf1 RBD pull-down). Conditions: growth-arrested R7T1 β cells; for Ras-GTP level / Ras signaling (in words): 0.5 μM. Format: cell-based, mouse. The method, then: Ras-GTP levels are detected using the Active Ras Pull-Down and Detection Kit, following the manufacturer's instructions (Pierce). Briefly, growth-arrested R7T1 β-cells are treated with 0.5 μM of a compound of the invention for an indicated time. Cells are then washed twice with ice-cold phosphate-buffered saline (PBS) and lysed in Lysis/Binding/Wash Buffer containing protease inhibitor cocktail [Roche]. Lysates (500 μg) are clarified by centrifugation and supernatants are incubated with 80 μg of GST-Raf1-RBD fusion protein precoupled to glutathione-Sepharose beads. After incubation for 1 hour at 4° C., beads are washed three times in Lysis/Binding/Wash Buffer, resuspended in Laemmli buffer and boiled. Samples are analyzed by SDS-PAGE (4-20%) followed by transfer to nitrocellulose membrane and then are probed with anti-Ras antibody. Blots are developed using the enhanced ECL system.

Assay [7] has as its system growth-arrested R7T1 β cells. The assay can be described thus: Microarray analysis of gene expression. The assay is classed as cell-based, mouse. How it is done:
RNA extraction from R7T1 β-cells treated with compounds at the indicated time points is performed using RNeasy kits (Qiagen). The integrity and concentration of RNA is determined by microfluidic analysis on an Experion instrument (BioRad). Standard Affymetrix single amplification is performed using 5 μg total RNA. Standard Affymetrix protocols are used to process Affymetrix MOE430—2 microarrays (Affymetrix). All CEL file images are processed as a single group using gcRMA.

Assay [8] deals with growth-arrested R7T1 β cells. The assay can be described thus: R7T1 β-cell proliferation, CellTiter Glo assay (high-throughput screen and follow-up). The assay is classed as cell-based, mouse. How it is done:
as §3
R7T1 β-cells are expanded in large quantities in growth medium in the presence of 10 μg/ml doxycycline and then are growth arrested by removal of doxycycline for one week. For the primary screen, growth-arrested cells are plated onto 384- or 1536-well plates in growth medium without doxycycline at a density of 4000 cells/well in 384-well plate or 1000 cells/well in 1536-well plate in an automated high-throughput screening platform (designated as Day 0). […] For data analysis, the median of a plate is calculated and the activity of each well is the signal/median of the plate. A signal in any well over 1.5 of the median is regarded as a primary hit. For the reconfirmation screen, growth-arrested R7T1 cells are plated onto 384-well plates and screened against all primary hits in quadruplicate. To eliminate tetracycline mimetics among all reconfirmed primary hits, βTC-tet cells are plated onto 384-well plates at a density of 2000 cells/well in growth medium in the presence of 10 μg/ml doxycycline, and 1.25 μM compound is added after overnight incubation and refreshed 4 days later. The effects on β-cell replication are then determined at Day 8 using the CellTiter Glo assay system. Any compound that increases the readings more than 1.5 fold is regarded as a hit.
SV40 T antigen (TAg) oncoprotein under the control of the Tet-On system was used to immortalize mouse β cells so that these engineered β cells proliferate when TAg is induced in the presence of tetracycline (Tet), but undergo growth arrest upon withdrawal of Tet (see, Efrat S, et al., Proc. Natl. Acad. Sci. USA 92:3576-3580 (1995); Fleischer N, et al, Diabetes 47:1419-1425 (1998); and Milo-Landesman D, et al., Cell Transplant. 10:645-650 (2001)). Although not a true mimic of in vivo quiescent β cells, this system should allow us to identify small molecules that are able to induce reentry into cell cycle and proliferation of growth-arrested cells. Indeed, these engineered cells express high levels of β-cell signature markers, including insulin 1, insulin 2, and Pdx1, and are able to secrete insulin and restore and maintain euglycemia in STZ-treated diabetic mice when induced to growth arrest and transplanted (see, Efrat S, et al., supra; and Milo-Landesman D, et al., supra). A total of ≈850,000 compounds were screened with an automated high-throughput screening platform for their ability to induce the proliferation of growth-arrested β cells in either a 384- or 1,536-well plate format. In the primary screen, proliferation was assayed by using a luminescent assay measuring intracellular ATP content, which is directly proportional to viable cell number (see, Materials and Methods). To rule out any possible Tet mimetics that induce the proliferation of β cells through the induction of SV40 TAg expression, the Tet-Off immortalized β-cell line βTC-Tet was used for a counterscreen.
(ATP-based viability assays read luminescence as a measure of living cells.)

The subject of assay [9] is Super (8×) TOPFlash reporter. The assay can be described thus: Super (8×) TOPFlash Wnt reporter in HEK293 cells. The assay is classed as cell-based. The method, then:
(A) Chemical structures of 5-thiophene pyrimidines. […] Relative luminescence unit (RLU) was measured by CellTiter-Glo assay after 7-day incubation of growth-arrested R7T1 β cells with 1a, which was added at day 0 and refreshed at day 4; experiments were performed in quadruplicate. All data in this paper are presented as mean±SD, unless otherwise specified. (C) Dose-dependent effects of 1a on the activation of Super (8×) TOPFlash reporter. HEK293 cells transfected with Super (8×) TOPFlash reporter were treated with 1a at the indicated concentrations 24 h after transfection. Luciferase activity was measured 48 h after compound treatment. (D and E) The proliferative effect of 1a on rat primary β cells. (D) After incubation for 72 h with 2 μM 1a, replicating β cells were identified by double-immunofluorescence staining by using anti-C-peptide antibody to mark β cells (green) and antibody against Ki-67, a proliferation marker (red). Nuclear DNA was stained with DAPI (blue). (Scale bar, 10 μm.) (E) The percentage of Ki-67-positive cells of all C-peptide-positive cells, which corresponds to the fraction of replicating β cells. The number of proliferating primary β cells increased after incubation for 72 h in the presence of 2 μM 1a compared with DMSO control: 1a at 2 μM increases the replicating β cells ≈2-fold. (F) Compound 1a stimulates the translocation of β-catenin into the nucleus. Nuclear β-catenin accumulation (green arrows) was increased in 10 μM 1a-treated HEK293 cells; in DMSO-treated control cells, β-catenin staining is weak and appears to concentrate at the cell surface. […] CellTiter-Glo activity was measured 7 days after compound treatment.

SMILES strings stand for the structures. “Also recorded” adds a separate entry of the source.

On to `COC(=O)C1=C(C)NC(C)=C([N+](=O)[O-])[C@H]1c1ccccc1C(F)(F)F` [Example 2a, (S)-methyl 2,6-dimethyl-5-nitro-4-(2-(trifluoromethyl)phenyl)-1,4-dihydropyridine-3-carboxylate], for which, in assay [1] (1 μM, 72 h, compared with DMSO), the “increase in replicating primary rat β cells (Ki-67/C-peptide)” value is recorded as “≈ 2.5 fold”. For the same compound, the “increase in rat C-peptide/Ki-67 double positive β-cells” value in [1] (72 hours (3 days), concentration not given) came out at 2.5 fold. In assay [2], the “proliferation of MIN6 β cells (in words)” value was “increased proliferation”. Moreover, the “proliferation of HIT-T15 β cells (in words)” value in assay [3] is listed as “increased proliferation”. Moreover, the “increase in proliferating human primary β cells” value in assay [4] (1 μM, 72 h, compared with DMSO) is listed as “≈ 1.5 fold”. Also, the “increase in human C-peptide/Ki-67 double positive β-cells” value in assay [4] (72 hours, concentration not given) was determined as 1.5 fold. In addition, the “number of proliferating human primary β cells (in words)” value in assay [4] (human islets, 3 days, 2a 1 μM, Ex-4 5 nM where combined) is recorded as “increase the number of proliferating human β cells”. In addition, the “increase in transient intracellular calcium levels” value in assay [5] (fluo-3, FLIPR) was determined as 10 fold. In assay [5] (fluo-3, FLIPR up to 5 min), the “calcium influx (in words)” value is “stimulated”. Moreover, in [6], the “time of peak Ras-GTP level” value worked out at 10 min and the “Ras-GTP level / Ras signaling (in words)” value is “elevated; also recorded: Activation”. In addition, the “Ras-GTP level / Ras signaling (in words)” value in assay [6] (listed as (S)-methyl 2,6-dimethyl-5-nitro-4-(2-(trifluoromethyl)phenyl)-1,4-dihydropyridin) is listed as “activates the Ras pathway”. For the same compound, the “expression of IRS2” value in assay [7] (0.5 μM) is given as 1.7 fold. Also, the “expression of Ccnd2 (cyclin D2)” value in [7] (0.5 μM, 24 h) was “approximately 1.7 fold”. Besides, in [7] (2-6 h after treatment), the “expression of RasGEFs (RasGRF1, RasGEF1b) (in words)” value is reported as “transcriptionally up-regulated; also recorded: activated”. For the same compound, the “expression of Ccnd2 (in words)” value in assay [7] (2a 1 μM, Ex-4 5 nM where combined, 2 h to 24 h) is listed as “increased; also recorded: up-regulated”. Besides, the “expression of β-cell signature markers insulin 1, insulin 2, Pdx1” value in assay [7] (pretreatment versus posttreatment, data not shown) is reported as “unchanged”. For the same compound, the “expression of immediate-early genes (Fos, Jun, Egr, Ier families)” value in assay [7] (within 30 min, 0.5 μM or 1 μM 2a, Ex-4 5 nM where combined) is listed as “large increase; also recorded: highly induced”. For the same compound, in [8], the “duration of R7T1 proliferation in the presence of the compound” value is “up to 3 weeks” and the “time to stop of proliferation after removal of the compound” value was not above 1 week. Also, the “effect on growth-arrested R7T1 β cells (in words)” value in assay [8] (CellTiter-Glo, 7 days) is given as “β-cell proliferation”.

`COc1ccc(CCNc2nc(N3CCCC3CO)nc3ccccc23)cc1` (stereo not drawn) [Example 9, (1-(4-(4-methoxyphenethylamino)quinazolin-2-yl)pyrrolidin-2-yl)methanol]: in [8] (high-throughput screen, CellTiter Glo at Day 8, screen concentration 1.25 μM), the “expansion of the pancreatic β-cell population” value came to 3 fold.

Turning to `CC1=C(CC(=O)O)c2cc(F)ccc2/C1=C\c1ccc([S+](C)[O-])cc1` (stereo not drawn) [Sulindac], the “effect on 1a-stimulated Wnt activation” value in assay [9] was “abolished”. For the same compound, the “effect on 1a-stimulated β-cell proliferation” value in [8] (60 μM Sulindac with 10 μM 1a, CellTiter-Glo after 7 days) was “abolished”.
